In ChEMBL document CHEMBL1122842, “Beta-adrenoceptor activity of the stereoisomers of the bufuralol alcohol and ketone metabolites” (J Med Chem, 1985):

biological target: Beta-1 adrenergic receptor (Rattus norvegicus) (UniProt P18090); settings: Heart
Sequence (P18090 whole entry, looked up): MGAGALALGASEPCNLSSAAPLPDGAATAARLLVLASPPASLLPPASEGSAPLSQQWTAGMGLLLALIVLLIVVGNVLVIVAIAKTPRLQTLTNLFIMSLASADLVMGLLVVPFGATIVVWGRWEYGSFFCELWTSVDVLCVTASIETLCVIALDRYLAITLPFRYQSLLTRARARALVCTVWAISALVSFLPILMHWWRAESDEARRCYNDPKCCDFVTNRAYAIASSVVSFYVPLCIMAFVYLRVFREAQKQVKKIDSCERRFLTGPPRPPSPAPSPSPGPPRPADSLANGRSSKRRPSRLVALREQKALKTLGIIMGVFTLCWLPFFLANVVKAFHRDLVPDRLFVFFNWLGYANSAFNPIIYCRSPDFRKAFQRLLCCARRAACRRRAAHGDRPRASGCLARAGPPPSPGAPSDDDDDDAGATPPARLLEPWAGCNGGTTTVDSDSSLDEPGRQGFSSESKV
Description: Beta-1 adrenergic receptor agonist activity as increased heart rate by 30 beats/min in rats

| ED30 [mg/kg] | SMILES |
| --- | --- |
| 0.0006 | CC(=O)c1cccc2cc([C@@H](O)CNC(C)(C)C)oc12 |
| 0.032 | CC(=O)c1cccc2cc([C@H](O)CNC(C)(C)C)oc12 |
| 0.053 | CCc1cccc2cc([C@@H](O)CNC(C)(C)C)oc12 |
| > 1 | CCc1cccc2cc([C@H](O)CNC(C)(C)C)oc12 |
| 0.019 | CC(O)c1cccc2cc([C@@H](O)CNC(C)(C)C)oc12 (stereo in doubt; form 1) |
| > 1 | CC(O)c1cccc2cc([C@H](O)CNC(C)(C)C)oc12 (stereo in doubt; form 1) |
| 0.0007 | CC(O)c1cccc2cc([C@@H](O)CNC(C)(C)C)oc12 (stereo in doubt; form 2) |
| 0.305 | CC(O)c1cccc2cc([C@H](O)CNC(C)(C)C)oc12 (stereo in doubt; form 2) |
